Test results reported in PubChem BioAssay AID330 (DTP/NCI, 2004).
Where “and” joins values, the source holds several entries; their conditions need not be identical. Equal entries are not always repeated. Inconclusive results and toxic doses are left out. Bridge positions count the residues as written; N and C are the ends. Peptide text beside a SMILES is read from it. I, II: the chains in the order shown. * marks the point of attachment. Quinoxaline2carbonyl = O=C(c1cnc2ccccc2n1)*

System: P388 leukemia ip, CD2F1 mice, survival T/C
Experiment: NCI In Vivo Anticancer Drug Screen. Data for tumor model P388 Leukemia (intraperitoneal) in CD2F1 (CDF1) mice
Conditions: endpoint: median survival time, higher = longer survival
Summary of the method: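 Mice carrying the transplanted tumor received test compound or vehicle. Survival was recorded in each group, and the value is the treated-group measurement divided by that of the vehicle-treated control group.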

Compound: CC1NC(=O)C(NC(=O)c2cnc3ccccc3n2)COC(=O)C(C(C)C)NC(=O)C2CSSCC(NC1=O)C(=O)NC(C(C)C)C(=O)OCC(NC(=O)c1cnc3ccccc3n1)C(=O)NC(C)C(=O)N2 (configuration not stated) (I: Quinoxaline2carbonyl-SACV / II: Quinoxaline2carbonyl-SACV; ester I:1-II:C, I:C-II:1; disulfide I:3-II:3; configuration not given here)
- T/C (dose: 1.25 mg/kg/injection, schedule: Q01DX005 (ip), vehicle: Klucel (hydroxypropylcellulose) (HPC)): 96 % of control
- T/C (dose: 2.5 mg/kg/injection, schedule: Q01DX005 (ip), vehicle: Klucel (hydroxypropylcellulose) (HPC)): 98 % of control
- T/C (dose: 5.0 mg/kg/injection, schedule: Q01DX005 (ip), vehicle: Klucel (hydroxypropylcellulose) (HPC)): 95 % of control
- T/C (dose: 10.0 mg/kg/injection, schedule: Q01DX005 (ip), vehicle: Klucel (hydroxypropylcellulose) (HPC)): 90 % of control
- T/C (dose: 20.0 mg/kg/injection, schedule: Q01DX005 (ip), vehicle: Klucel (hydroxypropylcellulose) (HPC)): 95 % of control
- T/C (dose: 40.0 mg/kg/injection, schedule: Q01DX005 (ip), vehicle: Klucel (hydroxypropylcellulose) (HPC)): 93 % of control
- T/C (dose: 60.0 mg/kg/injection, schedule: Q01DX005 (ip), vehicle: Klucel (hydroxypropylcellulose) (HPC)): 95 % of control

Compound: CN1CCC2(CCNCC2)C1=O
- T/C (dose: 50.0 mg/kg/injection, schedule: Q01DX009 (ip), vehicle: saline): 86 % of control
- T/C (dose: 100.0 mg/kg/injection, schedule: Q01DX009 (ip), vehicle: saline): 100 % of control
- T/C (dose: 200.0 mg/kg/injection, schedule: Q01DX009 (ip), vehicle: saline): 95 % of control

Compound: COc1ccc2c(NCCCCCCCCNc3c4ccc(OC)cc4nc4ccc(Cl)cc34)c3cc(Cl)ccc3nc2c1
- T/C (dose: 0.63 mg/kg/injection, schedule: Q01DX009 (ip), vehicle: other): 91 % of control
- T/C (dose: 1.25 mg/kg/injection, schedule: Q01DX009 (ip), vehicle: other): 105 % of control
- T/C (dose: 2.5 mg/kg/injection, schedule: Q01DX009 (ip), vehicle: other): 106 % of control
- T/C (dose: 5.0 mg/kg/injection, schedule: Q01DX009 (ip), vehicle: other): 118 % of control

Compound: O=C1CCCCC12CCCC2
- T/C (dose: 87.5 mg/kg/injection, schedule: Q01DX001 (ip), vehicle: saline sonified): 100 % of control
- T/C (dose: 175.0 mg/kg/injection, schedule: Q01DX001 (ip), vehicle: saline sonified): 100 % of control
- T/C (dose: 250.0 mg/kg/injection, schedule: Q01DX001 (ip), vehicle: saline sonified): 105 % of control

Compound: Cc1oc(C)c2c1C(=O)N(C)C2=O
- T/C (dose: 60.0 mg/kg/injection, schedule: Q01DX005 (ip), vehicle: saline with Tween-80): 100 % of control
- T/C (dose: 120.0 mg/kg/injection, schedule: Q01DX005 (ip), vehicle: saline with Tween-80): 100 % of control
- T/C (dose: 240.0 mg/kg/injection, schedule: Q01DX005 (ip), vehicle: saline with Tween-80): 103 % of control

Compound: Cc1ccc(C(=O)C(CN(C)C)CN(C)C)cc1C
- T/C (dose: 3.12 mg/kg/injection, schedule: Q01DX005 (ip), vehicle: saline): 109 % of control
- T/C (dose: 6.25 mg/kg/injection, schedule: Q01DX005 (ip), vehicle: saline): 119 % of control and 124 % of control
- T/C (dose: 25.0 mg/kg/injection, schedule: Q01DX005 (ip), vehicle: saline): 114 % of control

Compound: NC(CS)C(=O)O (configuration not stated) (tested in a mixture with another compound)
- T/C (dose: 3.12 mg/kg/injection, schedule: Q01DX009 (ip), vehicle: suspension in saline): 90 % of control
- T/C (dose: 6.25 mg/kg/injection, schedule: Q01DX009 (ip), vehicle: suspension in saline): 107 % of control
- T/C (dose: 12.5 mg/kg/injection, schedule: Q01DX009 (ip), vehicle: suspension in saline): 110 % of control
- T/C (dose: 25.0 mg/kg/injection, schedule: Q01DX009 (ip), vehicle: suspension in saline): 110 % of control

Compound: Cc1cc(C)c(O)c(N=Nc2ccccc2)c1
- T/C (dose: 100.0 mg/kg/injection, schedule: Q04DX003 (ip), vehicle: saline with Tween-80): 105 % of control
- T/C (dose: 200.0 mg/kg/injection, schedule: Q04DX003 (ip), vehicle: saline with Tween-80): 105 % of control
- T/C (dose: 400.0 mg/kg/injection, schedule: Q04DX003 (ip), vehicle: saline with Tween-80): 105 % of control

Compound: CCOC(=O)Nc1nncs1
- T/C (dose: 12.5 mg/kg/injection, schedule: Q01DX009 (ip), vehicle: distilled water + Tween-80): 103 % of control
- T/C (dose: 25.0 mg/kg/injection, schedule: Q01DX009 (ip), vehicle: distilled water + Tween-80): 105 % of control and 108 % of control
- T/C (dose: 50.0 mg/kg/injection, schedule: Q01DX009 (ip), vehicle: distilled water + Tween-80): 108 % of control
- T/C (dose: 100.0 mg/kg/injection, schedule: Q01DX009 (ip), vehicle: distilled water + Tween-80): 100 % of control
- T/C (dose: 200.0 mg/kg/injection, schedule: Q01DX009 (ip), vehicle: distilled water + Tween-80): 151 % of control and 168 % of control
- T/C (dose: 400.0 mg/kg/injection, schedule: Q01DX009 (ip), vehicle: distilled water + Tween-80): 108 % of control

Compound: CN(C)c1ccc(-c2nn(C)c3nc(=O)n(C)c(=O)c-3[n+]2[O-])cc1
- T/C (dose: 1.56 mg/kg/injection, schedule: Q01DX001 (ip), vehicle: saline): 101 % of control
- T/C (dose: 3.12 mg/kg/injection, schedule: Q01DX001 (ip), vehicle: saline): 103 % of control
- T/C (dose: 6.25 mg/kg/injection, schedule: Q01DX001 (ip), vehicle: saline): 100 % of control and 103 % of control

Compound: Nc1[nH]c(=S)[nH]c(=O)c1NS(=O)(=O)c1ccccc1
- T/C (dose: 30.0 mg/kg/injection, schedule: Q01DX005 (ip), vehicle: Klucel (hydroxypropylcellulose) (HPC)): 104 % of control and 106 % of control
- T/C (dose: 120.0 mg/kg/injection, schedule: Q01DX005 (ip), vehicle: Klucel (hydroxypropylcellulose) (HPC)): 98 % of control and 97 % of control
- T/C (dose: 240.0 mg/kg/injection, schedule: Q01DX005 (ip), vehicle: Klucel (hydroxypropylcellulose) (HPC)): 98 % of control and 108 % of control
